From US10508109B2 (priority 2015, dated 2019)
Structures can show the parent of a compound that is named as a salt. Where two headings read alike, the source gives them in different places.

Experiments:
A549 = experiment: Cell-based assay, anti-proliferative activity (Cell Counting Kit-8, 72 hours); details: Homo sapiens, read-out: IC50 (μM) A549
Method: 100 micro-L of cell suspension was seeded onto 96-well microtiter plate (ViewPlate-96FTC, PerkinElmer). […] Cellular growth was determined using Cell Counting Kit-8 (DOJINDO) at 72 hours after the exposure of the candidate inhibitors. […] Accurate IC50 values were calculated as described previously.

CCD-18Co = experiment: as above; details: Homo sapiens, read-out: IC50 (μM) CCD-18Co
Method: (§1) Active candidate inhibitors against SUV39H2 were evaluated for their target-specific cytotoxicity using A549, HCT-116, HFL1, CCD-18Co and PC14. 100 micro-L of cell suspension was seeded onto 96-well microtiter plate (ViewPlate-96FTC, PerkinElmer). The initial cell concentration of A549, HCT-116, HFL1, CCD-18Co and PC14 were 3,000 cells/well, 2,000 cells/well and 2,500 cells/well, respectively. Cellular growth was determined using Cell Counting Kit-8 (DOJINDO) at 72 hours after the exposure of the candidate inhibitors. IC50 was used as an indicator of the anti-proliferative activity of the inhibitors, and calculated by serial dilution method (0, 1.5625, 3.125, 6.25, 12.5, 25, 50, and 100 micro-M). Accurate IC50 values were calculated as described previously.

HCT-116 = experiment: as above; details: Homo sapiens, read-out: IC50 (μM) HCT-116
Method: as §1

HFL1 = experiment: as above; details: Homo sapiens, read-out: IC50 (μM) HFL1
Method: as §1

SUV39H2 = SUV39H2 (Homo sapiens (Human), UniProt Q9H5I1); details: read-out: IC50 (μM) Suv 39H2 assay
SUV39H2, sequence (Q9H5I1 whole entry): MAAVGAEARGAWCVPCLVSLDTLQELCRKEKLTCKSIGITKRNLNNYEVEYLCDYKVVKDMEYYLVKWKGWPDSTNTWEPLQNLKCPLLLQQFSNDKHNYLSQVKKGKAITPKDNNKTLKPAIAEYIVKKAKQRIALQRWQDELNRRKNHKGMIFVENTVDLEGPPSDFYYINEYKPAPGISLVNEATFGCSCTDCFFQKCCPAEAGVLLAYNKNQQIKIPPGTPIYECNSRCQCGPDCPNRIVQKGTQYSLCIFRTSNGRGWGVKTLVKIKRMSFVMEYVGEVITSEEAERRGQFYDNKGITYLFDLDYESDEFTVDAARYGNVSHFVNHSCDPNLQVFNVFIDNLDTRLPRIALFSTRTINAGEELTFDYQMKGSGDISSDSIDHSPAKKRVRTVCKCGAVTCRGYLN

[1] = A549 cells, Cell Counting Kit-8, 72 hours
[2] = CCD-18Co cells, Cell Counting Kit-8, 72 hours
[3] = HCT-116 cells, Cell Counting Kit-8, 72 hours
[4] = HFL1 cells, Cell Counting Kit-8, 72 hours

Row | Compound | IC50 (A549; A549, 72 h) | IC50 (CCD-18Co; CCD-18Co, 72 h) | IC50 (HCT-116; HCT-116, 72 h) | IC50 (HFL1; HFL1, 72 h) | IC50 (SUV39H2; enzyme assay) | IC50 (SUV39H2) | IC50 (A549; [1]) | IC50 (CCD-18Co; [2]) | IC50 (HCT-116; [3]) | IC50 (HFL1; [4])
1 | COc1cc(OC)c(-c2cn3ccc(NCCN(C)C)cc3n2)cc1Cl [Example 83, N^1-(2-(5-chloro-2,4-dimethoxyphenyl)imidazo[1,2-a]pyridin-7-yl)-N^2,N^2-dimethylethane-1,2-diamine] | 5.5 µM | 7.1 µM | 6.7 µM | 2.2 µM | 0.0373 µM | – | – | – | – | –
2 | COc1cc(OC)c(-c2cn3cc(N4CCNCC4)ccc3n2)cc1Cl [Example 115, 2-(5-chloro-2,4-dimethoxyphenyl)-6-(piperazin-1-yl)imidazo[1,2-a]-pyridine hydrochloride] | 9.4 µM | 13 µM | 7.7 µM | 8.4 µM | – | 0.0179 µM | – | – | – | –
3 | COc1cc(OC)c(-c2cn3ccc(N4CCN(CCO)CC4)nc3n2)cc1Cl [Example 45, 2-(4-(2-(5-chloro-2,4-dimethoxyphenyl)imidazo[1,2-a]pyrimidin-7-yl)-piperazin-1-yl)ethanol] | – | – | – | – | 0.0365 µM | – | 18 µM | 21 µM | 12 µM | 17 µM
4 | COc1cc(OC)c(-c2cn3cc(NCCN)ccc3n2)cc1Cl [Example 81, N^1-(2-(5-chloro-2,4-dimethoxyphenyl)imidazo[1,2-a]pyridin-6-yl)ethane-1,2-diamine] | – | – | – | – | 0.0179 µM | – | 13 µM | 11 µM | 11 µM | 5.6 µM
5 | COc1cc(OC)c(-c2cn3ccc(N4CCN(CCN)CC4)cc3n2)cc1Cl [Example 29, 2-(4-(2-(5-chloro-2,4-dimethoxyphenyl)imidazo[1,2-a]pyridin-7-yl)piperazin-1-yl)ethanamine trihydrochloride] | 7 µM | 12 µM | 9.7 µM | 4.5 µM | – | 0.012 µM | – | – | – | –
6 | COc1cc(OC)c(-c2cn3ccc(N4CCNCC4)cc3n2)cc1Cl [Example 17, 2-(5-chloro-2,4-dimethoxyphenyl)-7-(piperazin-1-yl)imidazo[1,2-a]pyridine] | – | – | – | – | 0.0195 µM | – | 6.1 µM | 8.6 µM | 4.5 µM | 3.3 µM
7 | COc1cc(OC)c(-c2cn3ccc(N4CCN(CCC#N)CC4)cc3n2)cc1Cl [Example 108, 3-(4-(2-(5-chloro-2,4-dimethoxyphenyl)imidazo[1,2-a]pyridin-7-yl)piperazin-1-yl)propanenitrile] | – | – | – | – | 0.0142 µM | – | 6.3 µM | 5.9 µM | 10 µM | 3 µM
8 | COc1cc(OC)c(-c2cn3ccc(C4=CCN(CCF)CC4)cc3n2)cc1Cl [Example 113, 2-(5-chloro-2,4-dimethoxyphenyl)-7-(1-(2-fluoroethyl)-1,2,3,6-tetrahydropyridin-4-yl)imidazo[1,2-a]pyridine] | – | – | – | – | 0.0571 µM | – | 6.7 µM | 7.6 µM | 6.7 µM | 5.2 µM
9 | COc1cc(OC)c(-c2cn3ccc(C4=CCN(C(C)=O)CC4)cc3n2)cc1Cl [Example 120, 1-(4-(2-(5-chloro-2,4-dimethoxyphenyl)imidazo[1,2-a]pyridin-7-yl)-5,6-dihydropyridin-1(2H)-yl)ethanone] | – | – | – | – | 0.0364 µM | – | 6.5 µM | 6.8 µM | 6.6 µM | 7.6 µM
10 | COc1cc(OC)c(-c2cn3ccc(N4CCC(N(C)C)CC4)cc3n2)cc1Cl [Example 92, 1-(2-(5-chloro-2,4-dimethoxyphenyl)imidazo[1,2-a]pyridin-7-yl)-N,N-dimethylpiperidin-4-amine] | – | – | – | – | 0.0135 µM | – | 6 µM | 8.8 µM | 7 µM | 5.5 µM
11 | COc1cc(OC)c(-c2cn3ccc(N)cc3n2)cc1Br [Example 5, 2-(5-bromo-2,4-dimethoxyphenyl)imidazo[1,2-a]pyridin-7-amine] | – | – | – | – | 0.0103 µM | – | 3.6 µM | 3.8 µM | 3.1 µM | 2.1 µM
12 | COc1cc(OC)c(-c2cn3ccc(N4CCCC4)cc3n2)cc1Br [Example 1, 2-(5-bromo-2,4-dimethoxyphenyl)-7-(pyrrolidin-1-yl)imidazo[1,2-a]pyridine] | 2.5 µM | 2.6 µM | 1.7 µM | 1.6 µM | 0.0182 µM | – | – | – | – | –
13 | COc1cc(OC)c(-c2cn3ccc(N4CC[C@H](NC(=O)OC(C)(C)C)C4)nc3n2)cc1Cl [Example 56, (S)-tert-butyl (1-(2-(5-chloro-2,4-dimethoxyphenyl)imidazo[1,2-a]-pyrimidin-7-yl)pyrrolidin-3-yl)carbamate] | – | – | – | – | 0.0168 µM | – | 7.5 µM | 7 µM | 7 µM | 5.7 µM
14 | COc1cc(OCCN(C)C)c(-c2cn3ccc(N4CCOCC4)cc3n2)cc1Cl [Example 98, 2-(4-chloro-5-methoxy-2-(7-morpholinoimidazo[1,2-a]pyridin-2-yl)-phenoxy)-N,N-dimethylethanamine] | – | – | – | – | 0.0372 µM | – | 22 µM | 9.9 µM | 13 µM | 15 µM
15 | COc1cc(OC)c(-c2cn3cc(N4CCC(N)CC4)ccc3n2)cc1Cl [Example 121, 1-(2-(5-chloro-2,4-dimethoxyphenyl)imidazo[1,2-a]pyridin-6-yl)piperidin-4-amine] | – | – | – | – | 0.0514 µM | – | 8.1 µM | 6.8 µM | 18 µM | 6.8 µM
16 | COc1cc(OC)c(-c2cn3ccc(N4CCC(N)C4)nc3n2)cc1Cl (stereo not drawn) [Example 34, 1-(2-(5-chloro-2,4-dimethoxyphenyl)imidazo[1,2-a]pyrimidin-7-yl)pyrrolidin-3-amine hydrochloride] | 12 µM | 11 µM | 9.6 µM | 4.4 µM | – | 0.0273 µM | – | – | – | –
17 | COc1cc(OC)c(-c2cn3ccc(N4CCN(C)CC4)cc3n2)cc1Cl [Example 106, 2-(5-chloro-2,4-dimethoxyphenyl)-7-(4-methylpiperazin-1-yl)imidazo[1,2-a]pyridine] | – | – | – | – | 0.0167 µM | – | 6.3 µM | 6.8 µM | 6.8 µM | 3.9 µM
18 | COc1cc(OC)c(-c2cn3ccc(N4CCC(N)C4)cc3n2)cc1C#N (stereo not drawn) [Example 73, 5-[7-(3-aminopyrrolidin-1-yl)imidazo[1,2-a]pyridin-2-yl]-2,4-dimethoxybenzonitrile] | – | – | – | – | 0.0112 µM | – | 2.3 µM | 5.6 µM | 1.5 µM | 1.5 µM
19 | COc1cc(OC)c(-c2cn3ccc(N4CCOCC4)nc3n2)cc1Cl [Example 79, 4-(2-(5-chloro-2,4-dimethoxyphenyl)imidazo[1,2-a]pyrimidin-7-yl)-morpholine hydrobromide] | – | – | – | – | 0.0344 µM | – | 21 µM | 22 µM | 21 µM | 15 µM
20 | COc1ccc(-c2cn3ccc(N4CCCC4)cc3n2)cc1C#N [Example 21, 2-methoxy-5-(7-(pyrrolidin-1-yl)imidazo[1,2-a]pyridin-2-yl)benzonitrile hydrobromide] | – | – | – | – | 0.0733 µM | – | 4.2 µM | 5.5 µM | 3.1 µM | 2.5 µM
21 | COc1cc(OC)c(-c2cn3ccc(C4=CCNCC4)cc3n2)cc1Cl [Example 52, 2-(5-chloro-2,4-dimethoxyphenyl)-7-(1,2,3,6-tetrahydropyridin-4-yl)imidazo[1,2-a]pyridine] | – | – | – | – | 0.0616 µM | – | 1.5 µM | 1.3 µM | 1.4 µM | 1.6 µM
22 | COc1cc(OC)c(-c2cn3ccc(N4CCCCC4)cc3n2)cc1Cl [Example 25, 2-(5-chloro-2,4-dimethoxyphenyl)-7-(piperidin-1-yl)imidazo)[1,2-a]pyridine hydrobromide] | – | – | – | – | 0.0122 µM | – | 3 µM | 2.3 µM | 2 µM | 1.4 µM
23 | CCOC(=O)N1CCN(c2ccn3cc(-c4cc(Cl)c(OC)cc4OC)nc3c2)CC1 [Example 107, ethyl 4-[2-(5-chloro-2,4-dimethoxyphenyl)imidazo[1,2-a]pyridin-7-yl]-piperazine-1-carboxylate] | – | – | – | – | 0.0116 µM | – | 2.3 µM | 3.2 µM | 1.7 µM | 1.7 µM
24 | COc1cc(OC)c(-c2cn3ccc(NCCN)cc3n2)cc1Cl [Example 10, N^1-(2-(5-chloro-2,4-dimethoxyphenyl)imidazo[1,2-a]pyridin-7-yl)ethane-1,2-diamine dihydrochloride] | 6.8 µM | 7.1 µM | 4.2 µM | 3.7 µM | – | 0.015 µM | – | – | – | –
